Measurements published in patent US20070167511A1, “Medicinal composition for prevention or treatment of overactive bladder accompanying nervous disorder” (KISSEI PHARMACEUTICAL CO,. LTD., priority 2004, published 2007).

Test system: rat spinal cord injured OAB model
Assay: Urodynamic study (cystometry) in rat spinal cord injured OAB model
Assay type: in vivo
Settings: conscious female rats with spinal cord transection at Th10, intravenous injection 0.1 mg/kg
Description: Efficacy on Urodynamic Study in Rat Spinal Cord Injured OAB Model
In ether anesthetized female rats, spinal cord transection was performed at the level of Th10. About 1 month after the spinal cord transection, each rat was anesthetized with pentobarbital and a catheter filled with saline was implanted into the urinary bladder, ligated, secured on the back of the neck and closed. Seven days after the bladder catheter implantation, another catheter filled with heparin-containing saline was implanted into the […], and ligated, secured on the back of the neck and closed. The next day, cystometry was performed in the conscious rat under free moving. Saline was instilled into the urinary bladder at a rate of 12 mL/hr. A drug was injected through the […] catheter that was secured on the back of the neck. […] Intravenous injection of compound 1 (0.1 mg/kg) prolonged the micturition interval by about 20% (FIG. 1) and decreased the frequency of involuntary contraction in filling phase by 20% (FIG. 2) in the same model.

Compound: C[C@H](Cc1cc2c(c(C(N)=O)c1)N(CCCO)CC2)NCCOc1ccccc1OCC(F)(F)F [compound 1, (−)-1-(3-hydroxypropyl)-5-((2R)-2-{[2-({2-[(2,2,2-trifluoroethyl)oxy]phenyl}oxy)ethyl]amino}propyl)-2,3-dihydro-1H-indol-7-yl-carboxamide]
- prolongation of the micturition interval (versus value before drug administration (FIG. 1)): about 20%
- decrease of the frequency of involuntary contraction in filling phase (versus value before drug administration (FIG. 2)): 20%
